Assay results from PubChem BioAssay (NCI).
Several values for one entry are separate records, joined by “and”; a condition that tells them apart may be missing. Equal entries are not always repeated.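 Interpolation was linear, between the two tested concentrations surrounding the appropriate level; five concentrations were tested over 48 hours in 96-well plates. Abbreviation: GI50, concentration required for 50% inhibition of growth. TGI: total growth inhibition.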

Experiments:
Test in all cases: NCI-60 cell line screen, 48 h
COLO 205 colon = tested on: COLO 205 colon
HCT-116 colon = tested on: HCT-116 colon
OVCAR-8 ovarian = tested on: OVCAR-8 ovarian
SF-268 CNS = tested on: SF-268 CNS
MCF7 breast = tested on: MCF7 breast
A549 NSCLC = tested on: A549 NSCLC
OVCAR-5 ovarian = tested on: OVCAR-5 ovarian
A498 renal = tested on: A498 renal
CAKI-1 renal = tested on: CAKI-1 renal
HCT-15 colon = tested on: HCT-15 colon

Row | Structure (SMILES) | GI50 (COLO 205 colon) | TGI (COLO 205 colon) | GI50 (HCT-116 colon) | TGI (HCT-116 colon) | GI50 (OVCAR-8 ovarian) | TGI (OVCAR-8 ovarian) | GI50 (SF-268 CNS) | TGI (SF-268 CNS) | GI50 (MCF7 breast) | TGI (MCF7 breast) | GI50 (A549 NSCLC) | TGI (A549 NSCLC) | GI50 (OVCAR-5 ovarian) | TGI (OVCAR-5 ovarian) | GI50 (A498 renal) | TGI (A498 renal) | GI50 (CAKI-1 renal) | TGI (CAKI-1 renal) | GI50 (HCT-15 colon) | TGI (HCT-15 colon)
1 | CCCCCCCCCc1cc[n+](CC(=O)c2ccc([N+](=O)[O-])cc2)cc1 | 0.344 µM | 1.45 µM | 0.373 µM | 1.43 µM | 0.604 µM | 2.13 µM | 1.34 µM | 2.81 µM | 0.397 µM | 1.79 µM | 1.64 µM | 3.13 µM | 1.16 µM | 2.52 µM | 1.26 µM | 3.14 µM | 3.19 µM | 12 µM | 1.19 µM | 2.57 µM
2 | COc1cc(Nc2ncc(F)c(Nc3ccc4c(n3)NC(=O)C(C)(C)O4)n2)cc(OC)c1OC | 2.4 µM and 2.55 µM | > 100 µM | > 100 µM | > 100 µM | > 100 µM | > 100 µM | 3.6 µM | > 10 µM | 3.93 µM | > 10 µM | 4.75 µM | > 10 µM | 3.85 µM | > 10 µM | 0.148 µM and 0.352 µM | 0.547 µM and 2.15 µM | 0.618 µM | > 10 µM | 4.75 µM | > 10 µM
3 | O=C(O)CCC/C=C\C[C@H]1C=CC(=O)/C1=C/C[C@@H](O)CCc1cccc(C(F)(F)F)c1 | 2.26 µM | 5.49 µM | 1.27 µM | 3.17 µM | 2.86 µM | 11.6 µM | 3.22 µM | 16.5 µM | 0.444 µM | 12.4 µM | 3.2 µM | 9.76 µM | 4.15 µM | 11.8 µM | 2.13 µM | 4.06 µM | 3.92 µM | 14.7 µM | 1.79 µM | 4.88 µM
4 | O=[N+]([O-])/C=C/c1cc2ccccc2[nH]1 | – | 32.7 µM | – | 15.7 µM | – | 48.8 µM | – | 36.4 µM | – | 13.1 µM | – | 42.7 µM | – | 37.1 µM | – | 34.4 µM | – | 33.7 µM | – | 53.6 µM
5 | CN1CCN(c2ccc(Nc3nc(N)c(C(=O)c4ccc5c(c4)OCCO5)s3)cc2)CC1 | 2.27 µM | 7.35 µM | 2.27 µM | > 15.5 µM | 5.94 µM | 16.7 µM | 3.84 µM | 10.5 µM | 2.85 µM | 7.73 µM | 4.3 µM | 15.7 µM | 2.86 µM | 8.48 µM | 2.3 µM | 6.22 µM | 1.18 µM | 7 µM | 4.08 µM | > 25 µM
6 | Nc1ncnc2c1c(-c1cccc(OCc3ccccc3)c1)cn2C1CC(CN2CCC2)C1 (stereo not given) | 0.262 µM and 0.245 µM | 1.55 µM and 1.29 µM | 1.85 µM and 2.58 µM | 11.5 µM and > 10 µM | 5.92 µM and 8.46 µM | 20 µM and > 10 µM | 2.24 µM and 3.68 µM | 6.54 µM and > 10 µM | 0.092 µM and 0.369 µM | 3.74 µM and 5.55 µM | 1.01 µM and 2.91 µM | 7.55 µM and > 10 µM | 0.844 µM and 2.48 µM | 14.9 µM and > 10 µM | 1.74 µM and 1.24 µM | 5.59 µM and 6.85 µM | 2.56 µM and 2.44 µM | 11.4 µM and > 10 µM | 1.93 µM and 2.39 µM | 12.6 µM and > 10 µM
7 | Cc1cc(Nc2c3ccccc3nc3ccccc23)ccc1NS(C)(=O)=O | 2.44 µM | 6.35 µM | 3.12 µM | 11.6 µM | 3.41 µM | 21.7 µM | 4.66 µM | 19.2 µM | 3.99 µM | 18.4 µM | 2.85 µM | 12 µM | 6.14 µM | 22.2 µM | 2.24 µM | 10.6 µM | 3.36 µM | 15.6 µM | 4.12 µM | 20.5 µM
